Key:
Type in all cases: in vivo
[1] = system: nightshade (eastern black nightshade, Solanum ptycanthum); assay: Test B pre-/postemergence plant response; conditions: Preemergence; for Nightshade plant response rating: 125 g ai/ha
Procedure, shortened: (§1)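 Ratings reflect visual comparison with untreated controls 13 to 15 days after application, from 0 (no effect) to 100 (complete control). Application was preemergence to seeded loam/sand soil or postemergence to 1- to 4-leaf plants, with compound in a non-phytotoxic, surfactant-containing solvent.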

[2] = system: sunflower (common oilseed sunflower, Helianthus annuus); assay: Test B pre-/postemergence plant response; conditions: Preemergence; for Sunflower plant response rating: 125 g ai/ha
Procedure, shortened: as §1

[3] = system: galium (catchweed bedstraw, Galium aparine); assay: Test B pre-/postemergence plant response; conditions: Preemergence; for Galium plant response rating: 125 g ai/ha
Procedure, shortened: as §1

[4] = system: giant foxtail (Setaria faberii); assay: Test A pre-/postemergence plant response
Procedure, shortened: (§2)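 Both pre- and postemergence treatments are applied simultaneously, using chemicals formulated in a non-phytotoxic solvent mixture with surfactant. Postemergence plants are 2–10 cm high with one to two leaves. After approximately ten days in a greenhouse, injury is scored visually from 0 (none) to 100 (complete control) relative to untreated plants.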

corn (Zea mays) = assay: Test A pre-/postemergence plant response
Procedure, shortened: as §2

[5] = system: wheat (Triticum aestivum); assay: Test A pre-/postemergence plant response
Procedure, shortened: as §2

[6] = system: barnyardgrass (Echinochloa crus-galli); assay: Test A pre-/postemergence plant response
Procedure, shortened: as §2

[7] = system: velvetleaf (Abutilon theophrasti); assay: Test A pre-/postemergence plant response
Procedure, shortened: as §2

[8] = system: large crabgrass (Digitaria sanguinalis); assay: Test A pre-/postemergence plant response
Procedure, shortened: as §2

[9] = system: goosegrass (Eleusine indica); assay: Test B pre-/postemergence plant response; conditions: Preemergence, 62 g ai/ha; scale 0 to 100, 0 no effect, 100 complete control
[10] = system: canarygrass (Phalaris minor); assay: Test B postemergence plant response; conditions: Postemergence; for Canarygrass plant response rating: 250 g ai/ha, scale 0 to 100
Procedure, shortened: (§3)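 Plants at the 1- to 4-leaf stage (2 to 18 cm tall), grown in pots of peat moss/vermiculite medium with wetting agent and starter nutrients, received postemergence applications of test chemicals. After 13 to 15 days in a greenhouse, injury was rated visually against untreated controls on a 0 (no effect) to 100 (complete control) scale.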

[11] = system: windgrass (Apera spica-venti); assay: Test B postemergence plant response; conditions: Postemergence; for Windgrass plant response rating: 250 g ai/ha, scale 0 to 100
Procedure, shortened: as §3

[12] = system: chickweed (Stellaria media); assay: Test B postemergence plant response; conditions: Postemergence; for Chickweed plant response rating: 250 g ai/ha, scale 0 to 100
Procedure, shortened: as §3

[13] = system: winter barley (Hordeum vulgare); assay: Test B postemergence plant response; conditions: Postemergence; for Barley plant response rating: 250 g ai/ha, scale 0 to 100
Procedure, shortened: as §3

[14] = 31 g ai/ha, scale 0 to 100 (0 no effect, 100 complete control)
[15] = 62 g ai/ha, scale 0 to 100, 0 no effect, 100 complete control
[16] = Postemergence, 125 g ai/ha, visual injury, 0 to 100 scale (0 no effect, 100 complete control), approx. ten days
[17] = Postemergence, 500 g ai/ha, 0 to 100 scale, 0 = no effect, 100 = complete control, approx. ten days
[18] = Preemergence, 125 g ai/ha, 0 to 100 scale, 0 = no effect, 100 = complete control
[19] = Preemergence, 500 g ai/ha, visual injury, 0 to 100 scale (0 no effect, 100 complete control), approx. ten days
[20] = 62 g ai/ha, scale 0 (no effect) to 100 (complete control), 13 to 15 days
[21] = 125 g ai/ha, visual rating after 13 to 15 days, scale 0 (no effect) to 100 (complete control)
[22] = 125 g ai/ha, scale 0 to 100 (0 no effect, 100 complete control), 13 to 15 days

## 5-[(2-hydroxy-6-oxo-1-cyclohexen-1-yl)carbonyl]-3-phenyl-2-(3-pyridinyl)-4(3H)-pyrimidone [Compound 113]
[1]; 250 g ai/ha, 0 to 100 scale
  Plant response rating, Nightshade: 100
[1]; [14]
  Plant response rating, Nightshade: 80
[1]; [15]
  Plant response rating, Nightshade: 90
[1]; 0 to 100 scale
  Nightshade plant response rating: 95
[2]; 250 g ai/ha, 0 to 100 scale
  Plant response rating, Sunflower: 25
[2]; [14]
  Plant response rating, Sunflower: 0
[2]; [15]
  Plant response rating, Sunflower: 0
[2]; 0 to 100 scale
  Sunflower plant response rating: 0
[3]; 250 g ai/ha, 0 to 100 scale
  Plant response rating, Galium: 0
[3]; [14]
  Plant response rating, Galium: 0
[3]; [15]
  Plant response rating, Galium: 0
[3]; 0 to 100 scale
  Galium plant response rating: 0
[4]; [16]
  Foxtail, Giant plant response rating: 40
[4]; [17]
  Plant response rating, Foxtail, Giant: 60
[4]; [18]
  Plant response rating, Foxtail, Giant: 0
[4]; [19]
  Plant response rating, Foxtail, Giant: 20
Corn (Zea mays); [16]
  Corn plant response rating: 0
Corn (Zea mays); [17]
  Plant response rating, Corn: 40
Corn (Zea mays); [18]
  Plant response rating, Corn: 0
Corn (Zea mays); [19]
  Plant response rating, Corn: 0
[5]; [16]
  Wheat plant response rating: 0
[5]; [17]
  Plant response rating, Wheat: 40
[5]; [18]
  Plant response rating, Wheat: 0
[5]; [19]
  Plant response rating, Wheat: 0
[6]; [16]
  Barnyardgrass plant response rating: 30
[6]; [17]
  Plant response rating, Barnyardgrass: 70
[6]; [18]
  Plant response rating, Barnyardgrass: 0
[6]; [19]
  Plant response rating, Barnyardgrass: 10
[7]; [16]
  Velvetleaf plant response rating: 100
[7]; [17]
  Plant response rating, Velvetleaf: 100
[7]; [18]
  Plant response rating, Velvetleaf: 60
[7]; [19]
  Plant response rating, Velvetleaf: 100
[8]; [16]
  Crabgrass, Large plant response rating: 50
[8]; [17]
  Plant response rating, Crabgrass, Large: 70
[8]; [18]
  Plant response rating, Crabgrass, Large: 0
[8]; [19]
  Plant response rating, Crabgrass, Large: 40
[9]
  Plant response rating, Goosegrass: 25
[10]; [14]
  Plant response rating, Canarygrass: 0
[10]; [20]
  Plant response rating, Canarygrass: 0
[10]; [21]
  Plant response rating, Canarygrass: 0
[10]
  Canarygrass plant response rating: 0
[11]; [14]
  Plant response rating, Windgrass: 5
[11]; [20]
  Plant response rating, Windgrass: 5
[11]; [21]
  Plant response rating, Windgrass: 5
[11]
  Windgrass plant response rating: 5
[12]; [14]
  Plant response rating, Chickweed: 60
[12]; [20]
  Plant response rating, Chickweed: 80
[12]; [21]
  Plant response rating, Chickweed: 90
[12]
  Chickweed plant response rating: 100
[13]; [14]
  Plant response rating, Barley: 0
[13]; [20]
  Plant response rating, Barley: 0
[13]; [22]
  Plant response rating, Barley: 0
[13]
  Barley plant response rating: 0

## O=C1CCCC([O-])=C1C(=O)c1cnc(-c2ccccc2)n(-c2ccccc2)c1=O.[K+] [Compound 14]
[1]; 250 g ai/ha, 0 to 100 scale
  Plant response rating, Nightshade: 100
[1]; [14]
  Plant response rating, Nightshade: 85
[1]; [15]
  Plant response rating, Nightshade: 98
[1]; 0 to 100 scale
  Nightshade plant response rating: 100
[2]; 250 g ai/ha, 0 to 100 scale
  Plant response rating, Sunflower: 98
[2]; [14]
  Plant response rating, Sunflower: 50
[2]; [15]
  Plant response rating, Sunflower: 85
[2]; 0 to 100 scale
  Sunflower plant response rating: 85
[3]; 250 g ai/ha, 0 to 100 scale
  Plant response rating, Galium: 80
[3]; [14]
  Plant response rating, Galium: 0
[3]; [15]
  Plant response rating, Galium: 0
[3]; 0 to 100 scale
  Galium plant response rating: 40
[4]; [16]
  Foxtail, Giant plant response rating: 30
[4]; [17]
  Plant response rating, Foxtail, Giant: 90
[4]; [18]
  Plant response rating, Foxtail, Giant: 40
[4]; [19]
  Plant response rating, Foxtail, Giant: 90
Corn (Zea mays); [16]
  Corn plant response rating: 0
Corn (Zea mays); [17]
  Plant response rating, Corn: 20
Corn (Zea mays); [18]
  Plant response rating, Corn: 0
Corn (Zea mays); [19]
  Plant response rating, Corn: 0
[5]; [16]
  Wheat plant response rating: 0
[5]; [17]
  Plant response rating, Wheat: 0
[5]; [18]
  Plant response rating, Wheat: 0
[5]; [19]
  Plant response rating, Wheat: 0
[6]; [16]
  Barnyardgrass plant response rating: 30
[6]; [17]
  Plant response rating, Barnyardgrass: 80
[6]; [18]
  Plant response rating, Barnyardgrass: 10
[6]; [19]
  Plant response rating, Barnyardgrass: 70
[7]; [16]
  Velvetleaf plant response rating: 100
[7]; [17]
  Plant response rating, Velvetleaf: 100
[7]; [18]
  Plant response rating, Velvetleaf: 90
[7]; [19]
  Plant response rating, Velvetleaf: 100
[8]; [16]
  Crabgrass, Large plant response rating: 30
[8]; [17]
  Plant response rating, Crabgrass, Large: 90
[8]; [18]
  Plant response rating, Crabgrass, Large: 30
[8]; [19]
  Plant response rating, Crabgrass, Large: 90
[9]
  Plant response rating, Goosegrass: 85
[10]; [14]
  Plant response rating, Canarygrass: 10
[10]; [20]
  Plant response rating, Canarygrass: 20
[10]; [21]
  Plant response rating, Canarygrass: 20
[10]
  Canarygrass plant response rating: 50
[11]; [14]
  Plant response rating, Windgrass: 5
[11]; [20]
  Plant response rating, Windgrass: 30
[11]; [21]
  Plant response rating, Windgrass: 30
[11]
  Windgrass plant response rating: 50
[12]; [21]
  Plant response rating, Chickweed: 80
[12]
  Chickweed plant response rating: 80
[13]; [14]
  Plant response rating, Barley: 0
[13]; [20]
  Plant response rating, Barley: 0
[13]; [22]
  Plant response rating, Barley: 5
[13]
  Barley plant response rating: 40

## O=C1CCCC(O)=C1C(=O)c1cnc(-c2ccccc2)n(-c2ccc(F)cc2)c1=O [Compound 24]
[1]; 250 g ai/ha, 0 to 100 scale
  Plant response rating, Nightshade: 100
[1]; [14]
  Plant response rating, Nightshade: 90
[1]; [15]
  Plant response rating, Nightshade: 98
[1]; 0 to 100 scale
  Nightshade plant response rating: 100
[2]; 250 g ai/ha, 0 to 100 scale
  Plant response rating, Sunflower: 98
[2]; [14]
  Plant response rating, Sunflower: 85
[2]; [15]
  Plant response rating, Sunflower: 90
[2]; 0 to 100 scale
  Sunflower plant response rating: 95
[3]; 250 g ai/ha, 0 to 100 scale
  Plant response rating, Galium: 80
[3]; [14]
  Plant response rating, Galium: 0
[3]; [15]
  Plant response rating, Galium: 0
[3]; 0 to 100 scale
  Galium plant response rating: 10
[4]; [16]
  Foxtail, Giant plant response rating: 70
[4]; [17]
  Plant response rating, Foxtail, Giant: 90
[4]; [18]
  Plant response rating, Foxtail, Giant: 40
[4]; [19]
  Plant response rating, Foxtail, Giant: 100
Corn (Zea mays); [16]
  Corn plant response rating: 0
Corn (Zea mays); [17]
  Plant response rating, Corn: 30
Corn (Zea mays); [18]
  Plant response rating, Corn: 0
Corn (Zea mays); [19]
  Plant response rating, Corn: 0
[5]; [16]
  Wheat plant response rating: 0
[5]; [17]
  Plant response rating, Wheat: 30
[5]; [18]
  Plant response rating, Wheat: 0
[5]; [19]
  Plant response rating, Wheat: 20
[6]; [16]
  Barnyardgrass plant response rating: 10
[6]; [17]
  Plant response rating, Barnyardgrass: 70
[6]; [18]
  Plant response rating, Barnyardgrass: 10
[6]; [19]
  Plant response rating, Barnyardgrass: 90
[7]; [16]
  Velvetleaf plant response rating: 100
[7]; [17]
  Plant response rating, Velvetleaf: 100
[7]; [18]
  Plant response rating, Velvetleaf: 90
[7]; [19]
  Plant response rating, Velvetleaf: 100
[8]; [16]
  Crabgrass, Large plant response rating: 70
[8]; [17]
  Plant response rating, Crabgrass, Large: 90
[8]; [18]
  Plant response rating, Crabgrass, Large: 30
[8]; [19]
  Plant response rating, Crabgrass, Large: 100
[9]
  Plant response rating, Goosegrass: 98
[10]; [14]
  Plant response rating, Canarygrass: 40
[10]; [20]
  Plant response rating, Canarygrass: 40
[10]
  Canarygrass plant response rating: 60
[11]; [14]
  Plant response rating, Windgrass: 20
[11]; [20]
  Plant response rating, Windgrass: 30
[11]; [21]
  Plant response rating, Windgrass: 60
[11]
  Windgrass plant response rating: 80
[12]; [14]
  Plant response rating, Chickweed: 80
[12]; [20]
  Plant response rating, Chickweed: 90
[12]; [21]
  Plant response rating, Chickweed: 95
[12]
  Chickweed plant response rating: 100
[13]; [14]
  Plant response rating, Barley: 0
[13]; [20]
  Plant response rating, Barley: 5
[13]; [22]
  Plant response rating, Barley: 50
[13]
  Barley plant response rating: 70
